Data from PMC5000626 (International Journal of Molecular Sciences, 2016).
Like-named read-outs stand apart in the source and are kept apart here.

Columns and labels:
[1] = system: LLC-PK1; conditions: LLC-PK1 cells; cited from earlier work
[2] = target: T1, mMATE1 (Mus musculus, UniProt Q8K0H1); assay: cell-based
T1 sequence (Q8K0H1 1-567): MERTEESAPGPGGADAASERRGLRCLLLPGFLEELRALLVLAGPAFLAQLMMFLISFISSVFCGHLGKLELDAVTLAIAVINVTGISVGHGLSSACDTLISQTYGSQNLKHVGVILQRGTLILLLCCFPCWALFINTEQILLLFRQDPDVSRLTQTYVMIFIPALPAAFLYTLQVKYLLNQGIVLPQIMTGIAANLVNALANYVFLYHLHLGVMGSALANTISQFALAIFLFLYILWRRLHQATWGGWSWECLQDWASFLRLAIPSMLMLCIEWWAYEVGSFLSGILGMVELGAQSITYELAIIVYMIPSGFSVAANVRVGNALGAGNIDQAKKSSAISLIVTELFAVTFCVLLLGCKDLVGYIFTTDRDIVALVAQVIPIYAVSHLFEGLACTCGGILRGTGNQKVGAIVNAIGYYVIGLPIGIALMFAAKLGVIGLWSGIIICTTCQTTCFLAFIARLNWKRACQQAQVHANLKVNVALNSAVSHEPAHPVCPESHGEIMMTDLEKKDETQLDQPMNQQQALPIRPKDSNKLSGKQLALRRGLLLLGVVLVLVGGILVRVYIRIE

[3] = cited from earlier work
[4] = target: T2, hMATE2-K (Homo sapiens, UniProt Q86VL8); assay: cell-based
Procedure: (§1) For transient expression, HEK293 cells were seeded on 24-well (2 × 10^5 cells/well) poly-D-lysine-coated plates (BD Biocoat, Franklin Lakes, NJ, USA) and transfected with hMATE1, hMATE2-K and mMATE1 cDNA containing plasmid vectors and empty vectors (pcDNA3.1(+) for hMATE1 and hMATE2-K, pFLAG for mMATE1) by using the LipofectAMINE 2000 Reagent (Life Technologies Corporation), according to the manufacturer’s instructions. The cells were used for uptake experiments at 48 h after transfection, while the empty vector-expressing cells were used as control.
(§2) The cells were dissolved in 0.5 mL of 0.5 normality (N) sodium hydroxide (NaOH), and then, the radioactivity in 200 µL was determined using liquid scintillation counting following addition to 2 mL of Ultima Gold (PerkinElmer). The protein content of each NaOH solution was determined using a Bio-Rad Protein Assay Kit (Bio-Rad Laboratories, Hercules, CA, USA) by using bovine γ-globulin as a standard. The Km and Vmax values were calculated from the saturation curve using the Michaelis–Menten equation, V = Vmax[S]/(Km + [S]), with Kaleidagraph Version 4.00 (Synergy Software, Reading, PA, USA) after the nonspecific uptake values were subtracted.

[5] = target: T1, mMATE1; conditions: [3H]dopamine uptake, HEK293 cells expressing mMATE1
Procedure: as §1, §2

[6] = target: T2, hMATE2-K; conditions: [3H]dopamine uptake, HEK293 cells expressing hMATE2-K
Procedure: as §1, §2

[7] = target: T3, hMATE1 (Homo sapiens, UniProt Q96FL8); assay: [3H]dopamine uptake kinetics in HEK293 cells transiently expressing hMATE1; assay type: cell-based
T3 sequence (Q96FL8 1-570): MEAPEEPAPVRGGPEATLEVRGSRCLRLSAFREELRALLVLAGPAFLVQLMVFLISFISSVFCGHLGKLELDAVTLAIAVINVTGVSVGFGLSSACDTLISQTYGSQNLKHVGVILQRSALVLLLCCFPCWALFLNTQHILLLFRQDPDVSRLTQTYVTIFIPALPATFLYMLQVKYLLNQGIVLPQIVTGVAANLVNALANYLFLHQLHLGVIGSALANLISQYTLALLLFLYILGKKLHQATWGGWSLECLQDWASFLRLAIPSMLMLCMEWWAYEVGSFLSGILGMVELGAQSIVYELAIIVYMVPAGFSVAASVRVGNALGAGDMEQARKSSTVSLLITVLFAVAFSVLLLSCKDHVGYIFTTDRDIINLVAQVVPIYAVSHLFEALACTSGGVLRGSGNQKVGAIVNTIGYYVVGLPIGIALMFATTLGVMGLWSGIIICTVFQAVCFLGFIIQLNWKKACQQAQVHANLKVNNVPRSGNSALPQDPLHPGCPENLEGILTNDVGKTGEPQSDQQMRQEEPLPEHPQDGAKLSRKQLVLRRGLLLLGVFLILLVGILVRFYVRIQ
Procedure: as §1, §2

[8] = patients with CML (imatinib also gastrointestinal stromal tumors), efficacy target for imatinib and nilotinib, safety limit for dasatinib

T2 sequence (Q86VL8 1-566 isoform Q86VL8-3): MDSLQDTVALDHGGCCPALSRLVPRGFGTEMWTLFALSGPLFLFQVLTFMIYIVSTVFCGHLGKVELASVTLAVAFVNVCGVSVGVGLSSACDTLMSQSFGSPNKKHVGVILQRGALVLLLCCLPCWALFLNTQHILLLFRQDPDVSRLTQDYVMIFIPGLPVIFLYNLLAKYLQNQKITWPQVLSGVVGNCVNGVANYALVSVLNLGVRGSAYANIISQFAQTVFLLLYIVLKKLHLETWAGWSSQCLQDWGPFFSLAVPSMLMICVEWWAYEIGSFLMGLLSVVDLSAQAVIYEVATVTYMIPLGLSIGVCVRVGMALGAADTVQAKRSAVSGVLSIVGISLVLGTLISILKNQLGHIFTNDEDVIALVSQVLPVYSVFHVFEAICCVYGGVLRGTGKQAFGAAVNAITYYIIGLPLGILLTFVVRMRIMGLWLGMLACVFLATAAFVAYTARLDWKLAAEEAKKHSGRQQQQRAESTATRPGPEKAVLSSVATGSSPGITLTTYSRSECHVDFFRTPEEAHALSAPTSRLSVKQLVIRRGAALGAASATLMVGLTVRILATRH

SMILES | inhibition of outward transfer of synthesized dopamine [1] | IC50 [2] | plasma trough concentration (Ctrough), clinical target [3, 8] | plasma trough concentration (Ctrough), clinical target ([3]; same targets in molar units) | other results
Fc1ccc(C(OCCN2CCN(CCCc3ccccc3)CC2)c2ccc(F)cc2)cc1 [GBR-12909] | failed to inhibit | – | – | – | –
Cc1cn(-c2cc(NC(=O)c3ccc(C)c(Nc4nccc(-c5cccnc5)n4)c3)cc(C(F)(F)F)c2)cn1 [Nilotinib, nilotinib] | – | > 100 µM | > 761 ng/mL | > 1400 nM | IC50 [4]: > 100 µM
COC(=O)[C@H]1[C@@H](OC(=O)c2ccccc2)C[C@@H]2CC[C@H]1N2C [cocaine] | failed to inhibit | – | – | – | –
Cc1nc(Nc2ncc(C(=O)Nc3c(C)cccc3Cl)s2)cc(N2CCN(CCO)CC2)n1 [Dasatinib, dasatinib] | – | 106 ± 7 µM | ≤ 2.5 ng/mL | ≤ 5 nM | –
NCCc1ccc(O)c(O)c1 [dopamine] | – | – | – | – | Vmax [5]: 8.73 ± 0.08 nmol·mg·protein^−1·min^−1; Vmax [6]: 7.69 ± 1.12 nmol·mg·protein^−1·min^−1; Km ([7]; [3H]dopamine uptake at 1 min, HEK293 cells expressing hMATE1, mean ± S.E., n=3): 560 ± 180 µM; Vmax ([7]; [3H]dopamine uptake, HEK293 cells expressing hMATE1): 3.71 ± 0.15 nmol·mg·protein^−1·min^−1
